Source: ChEMBL document CHEMBL4420076, “Amylin and calcitonin receptor agonist” (2017)
Numbered stars: 1 amine (or outer) side, 2 acyl side, 3 side chain; on linkers, the order of the positions; unused ones are H or OH. Peptide text beside a SMILES is read from it. * marks the point of attachment. C20 diacid = O=C(O)CCCCCCCCCCCCCCCCCCC(=O)*; C18 diacid = O=C(O)CCCCCCCCCCCCCCCCC(=O)*; γGlu = O=C(O)[C@H](CCC(=O)[*:2])N[*:1]

Experiments:
[1] = Solubility in 100 mM glycylglycine buffer at pH 4.0 incubated for 18 hrs by UPLC analysis; format: physicochemical
[2] = Solubility in 100 mM glycylglycine buffer at pH 5.0 incubated for 18 hrs by UPLC analysis; format: physicochemical
[3] = Solubility in 100 mM glycylglycine buffer at pH 3.0 incubated for 18 hrs by UPLC analysis; format: physicochemical
[4] = Solubility in 100 mM bistrispropane buffer at pH 6.5 incubated for 18 hrs by UPLC analysis; format: physicochemical
[5] = Solubility in 100 mM bistrispropane buffer at pH 7.0 incubated for 18 hrs by UPLC analysis; format: physicochemical
[6] = Solubility in 100 mM bistrispropane buffer at pH 8.0 incubated for 18 hrs by UPLC analysis; format: physicochemical
[7] = Stability in pH 7.5 buffer assessed as compound recovery at 1 uM by Thioflavin T based fluorescence assay; format: physicochemical; details: read-out: Drug recovery
[8] = Solubility in 100 mM bistrispropane buffer at pH 7.5 incubated for 18 hrs by UPLC analysis; format: physicochemical
[9] = Stability in pH 7.5 buffer assessed as lag time for fibril formation at 1 uM by Thioflavin T based fluorescence assay; format: physicochemical; details: pH 7.5, 1 µM
[10] = Solubility in 100 mM bistrispropane buffer at pH 6.0 incubated for 18 hrs by UPLC analysis; format: physicochemical
[11] = target: T1, Amylin receptor AMY3; CALCR/RAMP3 (Homo sapiens, UniProt O60896+P30988); assay: Agonist activity at human amylin receptor expressed in BHK570 cells co-expressing RAMP3 assessed as increase in intracellular cAMP concentration incubated for 3 hrs in presence of 10% FBS by CRE luciferase reporter gene assay; format: functional, cell-based
T1 sequence (P30988 whole entry): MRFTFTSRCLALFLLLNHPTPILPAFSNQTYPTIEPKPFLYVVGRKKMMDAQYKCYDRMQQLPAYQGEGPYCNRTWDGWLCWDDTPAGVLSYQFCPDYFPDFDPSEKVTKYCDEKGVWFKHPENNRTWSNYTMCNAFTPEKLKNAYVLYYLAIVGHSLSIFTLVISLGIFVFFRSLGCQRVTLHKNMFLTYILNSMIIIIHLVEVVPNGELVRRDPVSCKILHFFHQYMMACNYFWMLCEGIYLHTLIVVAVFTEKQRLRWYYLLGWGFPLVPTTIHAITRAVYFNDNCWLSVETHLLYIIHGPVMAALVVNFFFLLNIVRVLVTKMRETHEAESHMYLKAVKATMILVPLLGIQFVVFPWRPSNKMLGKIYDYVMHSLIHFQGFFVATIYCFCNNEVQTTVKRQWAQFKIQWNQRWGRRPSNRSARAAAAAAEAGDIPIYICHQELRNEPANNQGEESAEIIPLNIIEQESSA
T1 sequence (O60896 whole entry): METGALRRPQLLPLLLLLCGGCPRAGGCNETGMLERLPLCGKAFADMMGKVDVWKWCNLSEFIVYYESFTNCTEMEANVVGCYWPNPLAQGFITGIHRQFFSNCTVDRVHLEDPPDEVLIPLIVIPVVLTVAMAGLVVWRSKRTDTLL

[12] = target: T1, Amylin receptor AMY3; CALCR/RAMP3; assay: Displacement of [125I]-labeled rat amylin from human amylin receptor expressed in BHK tkts13 whole cells co-expressing RAMP3 incubated for 60 mins by scintillation proximity assay; format: cell-based
Rattus norvegicus [13] = assay: Reduction in food intake in Sprague-Dawley rat at 3 nmol/kg measured 24 to 48 hrs post dose relative to control; format: functional; parameters: scale not given: the % may be the effect or the level left
[14] = target: T1, Amylin receptor AMY3; CALCR/RAMP3; assay: Agonist activity at human amylin receptor expressed in BHK570 cells co-expressing RAMP3 assessed as increase in intracellular cAMP concentration incubated for 3 hrs in absence of albumin by CRE luciferase reporter gene assay; format: functional, cell-based
Rattus norvegicus [15] = assay: Reduction in food intake in Sprague-Dawley rat at 3 nmol/kg measured 0 to 24 hrs post dose relative to control; format: functional; parameters: scale not given: the % may be the effect or the level left
Calcitonin receptor [16] = target: T2, Calcitonin receptor (Homo sapiens, UniProt P30988); assay: Agonist activity at human calcitonin receptor expressed in BHK570 cells assessed as increase in intracellular cAMP concentration incubated for 3 hrs in absence of albumin by CRE luciferase reporter gene assay; format: functional, cell-based
T2 sequence (P30988 whole entry): T1 sequence (P30988 whole entry)

Calcitonin receptor [17] = target: T2, Calcitonin receptor; assay: Agonist activity at human calcitonin receptor expressed in BHK570 cells assessed as increase in intracellular cAMP concentration incubated for 3 hrs in presence of 10% FBS by CRE luciferase reporter gene assay; format: functional, cell-based

SMILES | solubility at 18 h [1] | solubility at 18 h [2] | solubility at 18 h [3] | solubility at 18 h [4] | solubility at 18 h [5] | solubility at 18 h [6] | solubility at 18 h [8] | solubility at 18 h [10] | EC50 [11] | IC50 [12] | EC50 [14] | EC50 (Calcitonin receptor [16]) | EC50 (Calcitonin receptor [17]) | remaining at 1 µM [7] | Time [9] | Activity (Rattus norvegicus [13]) | Activity (Rattus norvegicus [15])
CC(C)C[C@H](NC(=O)[C@H](C)NC(=O)[C@H](C)NC(=O)[C@@H](NC(=O)[C@H](CO)NC(=O)[C@H](CC(C)C)NC(=O)[C@H](CCC(=O)O)NC(=O)[C@H](CO)NC(=O)[C@H](C)N)[C@@H](C)O)C(=O)NCC(=O)N[C@@H](CCCNC(=N)N)C(=O)N[C@@H](CC(C)C)C(=O)N[C@@H](CO)C(=O)N[C@@H](C)C(=O)N[C@@H](CCC(=O)O)C(=O)N[C@@H](CC(C)C)C(=O)N[C@@H](Cc1cnc[nH]1)C(=O)N[C@@H](CCC(=O)O)C(=O)N[C@@H](CC(C)C)C(=O)N[C@@H](C)C(=O)N[C@H](C(=O)N[C@@H](CC(C)C)C(=O)N1CCC[C@H]1C(=O)N[C@@H](CCCNC(=N)N)C(=O)N[C@H](C(=O)N[C@@H](CCCCNC(=O)CC[C@H](NC(=O)CCCCCCCCCCCCCCCCCCC(=O)O)C(=O)O)C(=O)N[C@H](C(=O)NCC(=O)N[C@@H](CO)C(=O)NCC(=O)N[C@@H](CO)C(=O)N1CCC[C@H]1C(N)=O)[C@@H](C)O)[C@@H](C)O)[C@@H](C)O | ≥ 200 µM | ≥ 200 µM | ≥ 200 µM | ≥ 200 µM | ≥ 200 µM | ≥ 200 µM | ≥ 200 µM | ≥ 200 µM | – | – | – | – | – | 94% | > 45 h | – | –
CC(C)C[C@H](NC(=O)[C@H](C)NC(=O)[C@H](C)NC(=O)[C@@H](NC(=O)[C@H](CO)NC(=O)[C@H](CC(C)C)NC(=O)[C@H](CCC(=O)O)NC(=O)[C@H](CO)NC(=O)[C@H](C)NC(=O)CC[C@H](NC(=O)CCCCCCCCCCCCCCCCC(=O)O)C(=O)O)[C@@H](C)O)C(=O)NCC(=O)N[C@@H](CCCNC(=N)N)C(=O)N[C@@H](CC(C)C)C(=O)N[C@@H](CO)C(=O)N[C@@H](C)C(=O)N[C@@H](CCC(=O)O)C(=O)N[C@@H](CC(C)C)C(=O)N[C@@H](Cc1c[nH]cn1)C(=O)N[C@@H](CCC(=O)O)C(=O)N[C@@H](CC(C)C)C(=O)N[C@@H](C)C(=O)N[C@H](C(=O)N[C@@H](Cc1ccc(O)cc1)C(=O)N1CCC[C@H]1C(=O)N[C@@H](CCCNC(=N)N)C(=O)N[C@H](C(=O)N[C@@H](CCC(=O)O)C(=O)N[C@H](C(=O)NCC(=O)N[C@@H](CO)C(=O)NCC(=O)N[C@@H](CO)C(=O)N1CCC[C@H]1C(N)=O)[C@@H](C)O)[C@@H](C)O)[C@@H](C)O ({C18 diacid-γGlu}-ASELSTAALGRLSAELHELATYPRTETGSGSP-NH2) | – | – | – | – | – | – | – | – | – | – | – | – | – | 100% | > 45 h | – | –
CC(C)C[C@H](NC(=O)[C@H](C)NC(=O)[C@H](C)NC(=O)[C@@H](NC(=O)[C@H](CO)NC(=O)[C@H](CC(C)C)NC(=O)[C@H](CCC(=O)O)NC(=O)[C@H](CO)NC(=O)[C@H](C)NC(=O)[C@H](CCC(=O)O)NC(=O)CCCCCCCCCCCCCCCCC(=O)O)[C@@H](C)O)C(=O)NCC(=O)N[C@@H](CCCNC(=N)N)C(=O)N[C@@H](CC(C)C)C(=O)N[C@@H](CO)C(=O)N[C@@H](C)C(=O)N[C@@H](CCC(=O)O)C(=O)N[C@@H](CC(C)C)C(=O)N[C@@H](Cc1cnc[nH]1)C(=O)N[C@@H](CCC(=O)O)C(=O)N[C@@H](CC(C)C)C(=O)N[C@@H](C)C(=O)N[C@H](C(=O)N[C@@H](CC(C)C)C(=O)N1CCC[C@H]1C(=O)N[C@@H](CCCNC(=N)N)C(=O)N[C@H](C(=O)N[C@@H](CCC(=O)O)C(=O)N[C@H](C(=O)NCC(=O)N[C@@H](CO)C(=O)NCC(=O)N[C@@H](CO)C(=O)N1CCC[C@H]1C(N)=O)[C@@H](C)O)[C@@H](C)O)[C@@H](C)O ({C18 diacid}-EASELSTAALGRLSAELHELATLPRTETGSGSP-NH2) | ≥ 200 µM | ≥ 200 µM | ≥ 200 µM | ≥ 200 µM | ≥ 200 µM | ≥ 200 µM | ≥ 200 µM | ≥ 200 µM | 0.039 nM | 0.187 nM | 0.009 nM | 0.006 nM | 0.019 nM | – | – | 46% | 71%

The next lines start with results.

solubility at 18 h [1] | solubility at 18 h [2] | solubility at 18 h [3] | solubility at 18 h [4] | solubility at 18 h [5] | solubility at 18 h [6] | solubility at 18 h [8] | solubility at 18 h [10] | EC50 [11] | IC50 [12] | EC50 [14] | EC50 (Calcitonin receptor [16]) | EC50 (Calcitonin receptor [17]) | SMILES | remaining at 1 µM [7] | Time [9] | Activity (Rattus norvegicus [13]) | Activity (Rattus norvegicus [15])
≥ 200 µM | – | ≥ 200 µM | – | – | – | – | – | 0.565 nM | 2.56 nM | 0.025 nM | – | – | CC(C)C[C@H](NC(=O)CNC(=O)[C@H](CO)NC(=O)[C@H](CC(C)C)NC(=O)[C@H](CCC(=O)O)NC(=O)CC[C@H](NC(=O)CCCCCCCCCCCCCCCCCCC(=O)O)C(=O)O)C(=O)N[C@@H](CO)C(=O)N[C@H](C(=O)N[C@@H](CC(C)C)C(=O)N[C@H](C(=O)N[C@@H](CC(C)C)C(=O)NCC(=O)N[C@@H](CCCNC(=N)N)C(=O)N[C@@H](CC(C)C)C(=O)N[C@@H](CO)C(=O)N[C@@H](CCC(N)=O)C(=O)N[C@@H](CCC(=O)O)C(=O)N[C@@H](CC(C)C)C(=O)N[C@@H](Cc1cnc[nH]1)C(=O)N[C@@H](CCC(=O)O)C(=O)N[C@@H](CC(C)C)C(=O)N[C@@H](CCC(N)=O)C(=O)N[C@H](C(=O)N[C@@H](Cc1ccc(O)cc1)C(=O)N1CCC[C@H]1C(=O)N[C@@H](CCCNC(=N)N)C(=O)N[C@H](C(=O)NCC(=O)N[C@H](C(=O)NCC(=O)N[C@@H](CO)C(=O)NCC(=O)N[C@H](C(=O)N[C@@H](Cc1ccc(O)cc1)C(N)=O)[C@@H](C)O)[C@@H](C)O)[C@@H](C)O)[C@@H](C)O)C(C)C)[C@@H](C)O ({C20 diacid-γGlu}-ELSGLSTLVLGRLSQELHELQTYPRTGTGSGTY-NH2) | – | – | 0% | 32%
≥ 200 µM | ≥ 200 µM | ≥ 200 µM | ≥ 200 µM | ≥ 200 µM | ≥ 200 µM | ≥ 200 µM | ≥ 200 µM | 0.061 nM | 0.24 nM | 0.011 nM | 0.009 nM | 0.026 nM | CC(C)C[C@H](NC(=O)[C@H](C)NC(=O)[C@H](C)NC(=O)[C@@H](NC(=O)[C@H](CO)NC(=O)[C@H](CC(C)C)NC(=O)[C@H](CCC(=O)O)NC(=O)[C@H](CO)NC(=O)[C@H](C)NC(=O)[C@H](CCC(=O)O)NC(=O)CCCCCCCCCCCCCCCCCCC(=O)O)[C@@H](C)O)C(=O)NCC(=O)N[C@@H](CCCNC(=N)N)C(=O)N[C@@H](CC(C)C)C(=O)N[C@@H](CO)C(=O)N[C@@H](C)C(=O)N[C@@H](CCC(=O)O)C(=O)N[C@@H](CC(C)C)C(=O)N[C@@H](Cc1cnc[nH]1)C(=O)N[C@@H](CCC(=O)O)C(=O)N[C@@H](CC(C)C)C(=O)N[C@@H](C)C(=O)N[C@H](C(=O)N[C@@H](CC(C)C)C(=O)N1CCC[C@H]1C(=O)N[C@@H](CCCNC(=N)N)C(=O)N[C@H](C(=O)N[C@@H](CCC(=O)O)C(=O)N[C@H](C(=O)NCC(=O)N[C@@H](CO)C(=O)NCC(=O)N[C@@H](CO)C(=O)N1CCC[C@H]1C(N)=O)[C@@H](C)O)[C@@H](C)O)[C@@H](C)O ({C20 diacid}-EASELSTAALGRLSAELHELATLPRTETGSGSP-NH2) | – | – | 63.5% | 55.5%
